{"source": "paper PMC7617869", "about": "“Molecular glues that inhibit deubiquitylase activity and inflammatory signaling” (Nature Structural & Molecular Biology, 2025)", "assay_type_in_all_cases": "cell-based, human", "key": {"[1]": {"system": "IFNAR1 cell surface levels in MCF10A BRCC45 R137A cells", "assay": "MCF10A BRCC45 R137A IFNAR1 cell surface levels (FACS)", "details": "for IFNAR1 cell surface levels (Fig. 5g): BRCC45 KO + BRCC45 R137A, IFN + compound, No IFN about 100; for IFNAR1 cell surface levels: BRCC45 R137A cells, IFN 50 ng/ml, 5 μM, 90 min", "protocol": "To study the direct effect of BRISC DUB inhibitors, IFNAR1 surface levels were measured using flow cytometry (FACS) analysis. For this purpose, MCF10A WT and MCF10A BRCC45 KO cells expressing […]\nBRCC45 WT or BRCC45 R137A were used. […]\nminutes prior to the addition of 50 ng/mL of hIFN-Iα for various time points (45 minutes and 90 minutes).\nAfter IFN treatment, cells were dissociated from plate using cell dissociation Buffer (ThermoFisher Scientific, #13150016) and were stained with LIVE/DEAD™ Fixable Violet Dead Cell Stain Kit, for 405 nm excitation (ThermoFisher Scientific, #L34963) for 30 minutes, as per the kit protocol. The cells were then washed using FACS buffer (DPBS, 1% BSA, 2 mM EDTA, 0.09% sodium azide) and transferred to 96-well round bottom plates. Resuspended cells were divided into three repeats for each sample, each was surface stained for 1 hour at 4 °C with: 1. Human IFN-alpha/beta R1 Antibody (R&D systems, #MAB245), 2. Mouse IgG1 Isotype Control (R&D systems, #MAB002), 3. FACS buffer (control cells).\nFollowing incubation, cells were washed once with FACS buffer and were labelled for 30 minutes at 4 °C with either Biotin-SP-conjugated AffiniPure Donkey Anti-Mouse IgG (H+L) (Jackson Immunoresearch Laboratories) for samples 1 and 2 or with FACS buffer for sample 3. Cells were washed twice with FACS buffer and were labelled for 15 minutes at 4 °C with either R-Phycoerythrin-conjugated Streptavidin (Jackson Immunoresearch Laboratories) for samples 1 and 2 or with FACS buffer for sample 3. Cells were washed 3 times with FACS buffer and were analysed by FACS (MACSQuant, Miltenyi Biotec). For each sample from group 1 the Geo mean fluorescence intensity (MFI) of its isotype sample was reduced. IFNAR1 cell surface percentage was calculated by 100*(MFI"}, "[2]": {"system": "IFNAR1 ubiquitylation in MCF10A cells", "assay": "TUBE pull-down of ubiquitylated IFNAR1 in MCF10A cells", "design": "Blot Mean, Background substracted: unit not given here", "details": "for IFNAR1 ubiquitylation: MCF10A, IFNα2 50 ng/mL, 5 µM, compared to DMSO, AP-5-145 and FX-171-A", "protocol": "Tandem ubiquitin binding entity (TUBE) pull -down assay\nThe TUBE pull -down experiment was performed according to the manufacturer’s (UM401: TUBE 1 Agarose; LifeSensors) protocol with modifications. MCF10A cells (~20 x10 6) were pre -treated with the […] inhibitor panel (5 µM) or DMSO vehicle control for 1 hour followed by addition of recombinant IFNα2 (50 ng/m L, 592702, BioLegend). Following 1 hour incubation with IFNα2, cells were lysed in cell lysis buffer (50 mM Tris -HCl, pH 7.5, 0.15 M NaCl, 1 mM EDTA, 1% NP -40, 10% glycerol, 10 mM […]\nNEM). Cell lysates were clarified by centrifugation at 15,000 g for 10 minutes at 4 °C. Clarified lysates were pre-cleared with control uncoupled agarose beads (UM400, LifeSensors) for 30 minutes on a rotator at 4 °C followed by centrifugation at 5,000 g for 2 minutes. Equal amount of pre-cleared lysates from individual samples were incubated with 20 µL Agarose-TUBE beads (pre-equilibrated with 1X Tris-buffered saline (TBS)) overnight on a rotator at 4 °C. Beads were collected by centrifugation at 5,000 g for 2 minutes at RT followed by four stringent washes with 1X TBST (TBS, 0.1% Tween-20). TUBE-pulldown proteins were eluted by boiling Agarose-TUBE beads in 2X LDS sample buffer supplemented with […] DTT for 15 minutes. Eluted proteins were resolved on NuPAGE™ 4–12% Bis–Tris gel followed by Western blotting using anti-IFNAR1 antibody (ab124764, Abcam).\nPBMCs in vitro experiments\nPeripheral blood mononuclear cells (PBMCs) from healthy and SSc donors were separated using density gradient method (Leucosep™, Greiner Bio-One International) from EDTA anticoagulated peripheral blood; isolated cells were washed twice by PBS. PBMCs were then incubated in RPMI1640 […]\nFor healthy PBMCs, cells were stimulated with 20 ng/mL of IFN (+/- compounds or DMSO). For SSc PBMCs, cells were in basal conditions with no additional IFN stimulation. Cells were centrifuged at 300 g for 10 minutes. Supernatant was removed and subjected to R&D Systems DY266 Human CXCL10/IP-10 DuoSet ELISA (Biotechne) in duplicates, according to manufacturer’s guidance. Concentration of CXCL10 was determined according to a 4-parameter logistic regression standard curve. RNA was extracted from cell pellets using TRIzol™ (ThermoFisher Scientific, Waltham, MA) and processed using Quick-RNA Miniprep Kit (Zymo Research) as per the manufacturer’s instruction.\nFor Type I IFN signalling analysis, the human IFN I RT2 Profiler PCR Array (Qiagen, PAMM-016ZE) was performed on available RNA from healthy (n=3) and SSc (n=9) donors. RNA was converted to cDNA using RT2 First Strand Kit (Qiagen). Next, the cDNA was mixed with RT2 SYBR Green Mastermix (Qiagen, Venlo). Successful PCR performance was confirmed by assay tests for genomic DNA contamination, RNA sample quality, as well as single melt curve determination and <35 Ct for each gene, leading to validated gene expression of 67 genes. Relative expression for each gene was determined, firstly by ∆CT calculated using the geometric mean of 4 housekeeping genes (ACTB, GAPDH, HPRT1, RPLP0), followed by 2^(-∆CT), and expressed as fold change to control, according to manufacturer’s guidance. IFN2α-induced ISGs in healthy donors were determined using a Student’s t-test (two-tail distribution and equal variances) on the triplicate fold change in 2^(-ΔCT) values between […]\ndonors). Heatmaps were generated using the “pheatmap” function in R (v4.0.2) and RStudio (v1.3.1093) applying row scaling to standardise the expression data across samples (R core team 2020.\nR Foundation for Statistical Computing). The IFN2α inducible genes determined in healthy donors […]\n171-C. To account for Type I IFN signalling heterogeneity across samples, the mean 2^(-∆CT) for each […]\nrelative gene expression, illustrated as a fold change and visualised in log2. The Type I IFN signalling array data for the patient samples is included in Source Data Figure 6, Extended Data Fig. 9."}, "[3]": {"system": "ISG expression in MCF10A Cas9 cells expressing BRCC45 WT", "assay": "MCF10A BRCC45 WT ISG expression (RT–qPCR)", "details": "hIFNα2 75 ng/ml, 2.5 μM, 4 h"}, "[4]": {"details": "TUBE pull-down IFNAR1 blot densitometry, biological replicates 1-3"}}, "note": "“And” between values parts separate entries of the source, which are not always exact repeats. Identical values can stand only once.", "data": [{"smiles": "Cn1cc(NC(=O)c2c(Cl)cccc2Cl)c(C(=O)NC2CCN(C(=O)c3c(Cl)cccc3Cl)CC2)n1", "note": "[AP-5-145]", "values": [{"measurement": "IFNAR1 cell surface levels (Fig. 5g)", "setting": "[1]", "result": "55.396 and 54.5623 and 54.7013"}, {"measurement": "Fold Change", "setting": "[2]; TUBE pull-down IFNAR1 blot densitometry, relative to DMSO = 1, biological replicates 1-3", "result": "1.205 and 1.413 and 1.158"}, {"measurement": "Blot Mean, Background substracted", "setting": "[2]; [4]", "result": "48.742 and 43.008 and 72.446"}]}, {"smiles": "O=C(NC1C2CNCC21)c1nn(C(=O)c2c(Cl)cccc2Cl)cc1NC(=O)c1c(Cl)cccc1Cl", "note": "(stereo not shown) [FX-171-C]", "values": [{"measurement": "IFNAR1 cell surface levels (Fig. 5g)", "setting": "[1]", "result": "49.6989 and 47.3367 and 48.4484"}, {"measurement": "IFNAR1 cell surface levels", "setting": "[1]", "result": "not reduced"}, {"measurement": "IFNAR1 ubiquitylation", "setting": "[2]", "result": "elevated levels of IFNAR1 ubiquitylation"}, {"measurement": "Blot Mean, Background substracted", "setting": "[2]; [4]", "result": "52.149 and 49.341 and 95.856"}, {"measurement": "ISG expression (ISG15, IFIT1, IFIT2, IFITM1, CXCL10)", "setting": "[3]", "result": "reduced gene expression for all five ISGs"}]}, {"smiles": "O=C(NC1CCNCC1)c1nn(C(=O)c2c(Cl)cccc2Cl)cc1NC(=O)c1c(Cl)cccc1Cl", "note": "[JMS-175-2]", "values": [{"measurement": "IFNAR1 cell surface levels (Fig. 5g)", "setting": "[1]", "result": "50.1158 and 49.56 and 49.1431"}, {"measurement": "IFNAR1 cell surface levels", "setting": "[1]", "result": "not reduced"}, {"measurement": "IFNAR1 ubiquitylation", "setting": "[2]", "result": "elevated levels of IFNAR1 ubiquitylation"}, {"measurement": "Blot Mean, Background substracted", "setting": "[2]; [4]", "result": "63.299 and 57.607 and 102.609"}, {"measurement": "ISG expression (ISG15, IFIT1, IFIT2, IFITM1, CXCL10)", "setting": "[3]", "result": "reduced gene expression for all five ISGs"}]}]}
